Patent US20110086759A1, “CHEMICAL COMPOUNDS” (SYNGENTA CROP PROTECTION, INC., priority 2007, published 2011)

Tests used:
Type in all cases: in vivo
[1] = test system: Alopecurus myosuroides (ALOMY); experiment: Pre-emergence biological efficacy, glasshouse pot test; conditions: 312 h, pre-emergence, rate 1,000 g/ha, evaluated after 13 days (100=total damage to plant; 0=no damage), read-out: Percentage damage caused to weed species, ALOMY
Outline: (§1)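 Compound was applied as a spray one day after sowing, at a final dose of 1000 or 250 g/ha. Plants grew under 14 h light, 24/16 °C and 65% humidity, and injury was assessed on day 13 on a 0–100 scale.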

[2] = test system: Amaranthus retoflexus (AMARE); experiment: as above; conditions: Amaranthus retroflexus, 312 h; pre-emergence, rate 1,000 g/ha, evaluated after 13 days (100=total damage to plant; 0=no damage); read-out: Percentage damage caused to weed species, AMARE
Outline: as §1

[3] = test system: Echinochloa crus-galli (ECHCG); experiment: as above; conditions: 312 h, pre-emergence, rate 1,000 g/ha, evaluated after 13 days (100=total damage to plant; 0=no damage), read-out: Percentage damage caused to weed species, ECHCG
Outline: as §1

[4] = test system: Ipomea hederaceae (IPOHE); experiment: as above; conditions: Ipomoea hederacea, 312 h; pre-emergence, rate 1,000 g/ha, evaluated after 13 days (100=total damage to plant; 0=no damage); read-out: Percentage damage caused to weed species, IPOHE
Outline: as §1

Setaria faberi (SETFA) [5] = experiment: as above; conditions: 312 h, pre-emergence, rate 1,000 g/ha, evaluated after 13 days (100=total damage to plant; 0=no damage), read-out: Percentage damage caused to weed species, SETFA
Outline: as §1

Solanum nigrum (SOLNI) [6] = experiment: as above; conditions: 312 h, pre-emergence, rate 1,000 g/ha, evaluated after 13 days (100=total damage to plant; 0=no damage), read-out: Percentage damage caused to weed species, SOLNI
Outline: as §1

[7] = test system: Alopecurus myosuroides (ALOMY); experiment: Post-emergence biological efficacy, glasshouse pot test; conditions: 312 h, Rate 1,000 g/ha, post-emergence spray, evaluated after 13 days (100=total damage to plant; 0=no damage to plant), read-out: Percentage damage caused to weed species, post-emergence, ALOMY
Outline: (§2)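 Plants were sown in standard soil and grown 8 days in a glasshouse (24/16° C. day/night, 14 hours light, 65% humidity), then sprayed post-emergence at 1000 or 250 g/ha from acetone/water (50:50) with 0.5% Tween 20. Damage was scored visually after 13 days (0 = none, 100 = total).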

[8] = test system: Amaranthus retoflexus (AMARE); experiment: as above; conditions: Amaranthus retroflexus, 312 h; Rate 1,000 g/ha; post-emergence spray; evaluated after 13 days (100=total damage to plant; 0=no damage to plant); read-out: Percentage damage caused to weed species, post-emergence, AMARE
Outline: as §2

[9] = test system: Echinochloa crus-galli (ECHCG); experiment: as above; conditions: 312 h, Rate 1,000 g/ha, post-emergence spray, evaluated after 13 days (100=total damage to plant; 0=no damage to plant), read-out: Percentage damage caused to weed species, post-emergence, ECHCG
Outline: as §2

[10] = test system: Ipomea hederaceae (IPOHE); experiment: as above; conditions: Ipomoea hederacea, 312 h; Rate 1,000 g/ha; post-emergence spray; evaluated after 13 days (100=total damage to plant; 0=no damage to plant); read-out: Percentage damage caused to weed species, post-emergence, IPOHE
Outline: as §2

Setaria faberi (SETFA) [11] = experiment: as above; conditions: 312 h, Rate 1,000 g/ha, post-emergence spray, evaluated after 13 days (100=total damage to plant; 0=no damage to plant), read-out: Percentage damage caused to weed species, post-emergence, SETFA
Outline: as §2

Solanum nigrum (SOLNI) [12] = experiment: as above; conditions: 312 h, Rate 1,000 g/ha, post-emergence spray, evaluated after 13 days (100=total damage to plant; 0=no damage to plant), read-out: Percentage damage caused to weed species, post-emergence, SOLNI
Outline: as §2

## C=CCN(Cc1ccc(F)cc1)c1nc(C2CC2)nc(C(=O)OC)c1Cl [Compound 151-66, 5-Chloro-2-cyclopropyl-4-[N-(4-fluorophenylmethyl)-N-prop-2-en-1-yl-amino]-6-methoxy-carbonylpyrimidine]
[1]
  pest or weed control at 1000 g/ha: 0%
[2]
  pest or weed control at 1000 g/ha: 40%
[3]
  pest or weed control at 1000 g/ha: 0%
[4]
  pest or weed control at 1000 g/ha: 50%
Setaria faberi (SETFA) [5]
  pest or weed control at 1000 g/ha: 0%
Solanum nigrum (SOLNI) [6]
  pest or weed control at 1000 g/ha: 0%
[7]
  pest or weed control at 1000 g/ha: 20%
[8]
  pest or weed control at 1000 g/ha: 80%
[9]
  pest or weed control at 1000 g/ha: 30%
[10]
  pest or weed control at 1000 g/ha: 70%
Setaria faberi (SETFA) [11]
  pest or weed control at 1000 g/ha: 50%
Solanum nigrum (SOLNI) [12]
  pest or weed control at 1000 g/ha: 80%

## C=CCN(Cc1cccc(OC)c1OC)c1nc(C2CC2)nc(C(=O)OC)c1Cl [Compound 151-109, 5-Chloro-2-cyclopropyl-4-[N-(2,3-dimethoxyphenyl-methyl)-N-prop-2-en-1-yl-amino]-6-methoxycarbonyl-pyrimidine]
[1]
  pest or weed control at 1000 g/ha: 0%
[2]
  pest or weed control at 1000 g/ha: 60%
[3]
  pest or weed control at 1000 g/ha: 0%
[4]
  pest or weed control at 1000 g/ha: 20%
Setaria faberi (SETFA) [5]
  pest or weed control at 1000 g/ha: 10%
Solanum nigrum (SOLNI) [6]
  pest or weed control at 1000 g/ha: 20%
[7]
  pest or weed control at 1000 g/ha: 0%
[8]
  pest or weed control at 1000 g/ha: 30%
[9]
  pest or weed control at 1000 g/ha: 0%
[10]
  pest or weed control at 1000 g/ha: 30%
Setaria faberi (SETFA) [11]
  pest or weed control at 1000 g/ha: 0%
Solanum nigrum (SOLNI) [12]
  pest or weed control at 1000 g/ha: 30%

## C=CCN(Cc1cc(Cl)ccc1OC)c1nc(C2CC2)nc(C(=O)OC)c1Cl [Compound 151-117, 5-Chloro-4-[N-(5-chloro-2-methoxyphenylmeth-yl)-N-prop-2-en-1-yl-amino]-2-cyclopropyl-6-methoxycarbonyl-pyrimidine]
[1]
  pest or weed control at 1000 g/ha: 10%
[2]
  pest or weed control at 1000 g/ha: 40%
[3]
  pest or weed control at 1000 g/ha: 0%
[4]
  pest or weed control at 1000 g/ha: 30%
Setaria faberi (SETFA) [5]
  pest or weed control at 1000 g/ha: 10%
Solanum nigrum (SOLNI) [6]
  pest or weed control at 1000 g/ha: 30%
[7]
  pest or weed control at 1000 g/ha: 0%
[8]
  pest or weed control at 1000 g/ha: 30%
[9]
  pest or weed control at 1000 g/ha: 0%
[10]
  pest or weed control at 1000 g/ha: 60%
Setaria faberi (SETFA) [11]
  pest or weed control at 1000 g/ha: 20%
Solanum nigrum (SOLNI) [12]
  pest or weed control at 1000 g/ha: 30%

## C=CCN(Cc1cccs1)c1nc(C2CC2)nc(C(=O)OC)c1Cl [Compound 151-140, 5-Chloro-2-cyclopropyl-6-methoxycarbonyl-4-(N-prop-2-en-1-yl-N-thiophen-2-ylmethyl-amino)-pyrimidine]
[1]
  pest or weed control at 1000 g/ha: 0%
[2]
  pest or weed control at 1000 g/ha: 100%
[3]
  pest or weed control at 1000 g/ha: 0%
[4]
  pest or weed control at 1000 g/ha: 20%
Setaria faberi (SETFA) [5]
  pest or weed control at 1000 g/ha: 10%
Solanum nigrum (SOLNI) [6]
  pest or weed control at 1000 g/ha: 70%
[7]
  pest or weed control at 1000 g/ha: 10%
[8]
  pest or weed control at 1000 g/ha: 60%
[9]
  pest or weed control at 1000 g/ha: 10%
[10]
  pest or weed control at 1000 g/ha: 70%
Setaria faberi (SETFA) [11]
  pest or weed control at 1000 g/ha: 50%
Solanum nigrum (SOLNI) [12]
  pest or weed control at 1000 g/ha: 50%

## C=CCN(Cc1ccc(Cl)s1)c1nc(C2CC2)nc(C(=O)OC)c1Cl [Compound 151-141, 5-Chloro-4-[N-(5-chlorothiophen-2-ylmethyl)-N-prop-2-en-1-yl-amino]-2-cyclopropyl-6-methoxycarbonyl-pyrimidine]
[1]
  pest or weed control at 1000 g/ha: 10%
[2]
  pest or weed control at 1000 g/ha: 50%
[3]
  pest or weed control at 1000 g/ha: 0%
[4]
  pest or weed control at 1000 g/ha: 40%
Setaria faberi (SETFA) [5]
  pest or weed control at 1000 g/ha: 0%
Solanum nigrum (SOLNI) [6]
  pest or weed control at 1000 g/ha: 0%
[7]
  pest or weed control at 1000 g/ha: 10%
[8]
  pest or weed control at 1000 g/ha: 40%
[9]
  pest or weed control at 1000 g/ha: 10%
[10]
  pest or weed control at 1000 g/ha: 70%
Setaria faberi (SETFA) [11]
  pest or weed control at 1000 g/ha: 60%
Solanum nigrum (SOLNI) [12]
  pest or weed control at 1000 g/ha: 40%

## COC(=O)c1nc(C2CC2)nc(N(CC=C(C)C)Cc2ccccc2C(F)(F)F)c1Cl [Compound 152-75, 5-Chloro-2-cyclopropyl-6-methoxycarbonyl-4-[N-(3-methylbut-2-en-1-yl)-N-(2-trifluoromethyl-phenylmethyl)-amino]pyrimidine]
[1]
  pest or weed control at 1000 g/ha: 20%
[2]
  pest or weed control at 1000 g/ha: 80%
[3]
  pest or weed control at 1000 g/ha: 10%
[4]
  pest or weed control at 1000 g/ha: 80%
Setaria faberi (SETFA) [5]
  pest or weed control at 1000 g/ha: 40%
Solanum nigrum (SOLNI) [6]
  pest or weed control at 1000 g/ha: 20%
[7]
  pest or weed control at 1000 g/ha: 10%
[8]
  pest or weed control at 1000 g/ha: 50%
[9]
  pest or weed control at 1000 g/ha: 0%
[10]
  pest or weed control at 1000 g/ha: 60%
Setaria faberi (SETFA) [11]
  pest or weed control at 1000 g/ha: 10%
Solanum nigrum (SOLNI) [12]
  pest or weed control at 1000 g/ha: 60%

## C=CCCN(Cc1ccccc1)c1nc(C2CC2)nc(C(=O)OC)c1Cl [Compound 154-60, 4-(N-But-3-enyl-N-phenylmethyl-amino)-5-chloro-2-cyclopropyl-6-methoxycarbonyl-pyrimidine]
[1]
  pest or weed control at 1000 g/ha: 0%
[2]
  pest or weed control at 1000 g/ha: 40%
[3]
  pest or weed control at 1000 g/ha: 0%
[4]
  pest or weed control at 1000 g/ha: 0%
Setaria faberi (SETFA) [5]
  pest or weed control at 1000 g/ha: 0%
Solanum nigrum (SOLNI) [6]
  pest or weed control at 1000 g/ha: 0%
[7]
  pest or weed control at 1000 g/ha: 20%
[8]
  pest or weed control at 1000 g/ha: 60%
[9]
  pest or weed control at 1000 g/ha: 20%
[10]
  pest or weed control at 1000 g/ha: 80%
Setaria faberi (SETFA) [11]
  pest or weed control at 1000 g/ha: 30%
Solanum nigrum (SOLNI) [12]
  pest or weed control at 1000 g/ha: 50%

## COC(=O)c1nc(C2CC2)nc(N(Cc2ccccc2)Cc2ccccc2)c1Cl [Compound 155-60, 5-Chloro-2-cyclopropyl-4-dibenzylamino-6-methoxycarbonyl-pyrimidine]
[1]
  pest or weed control at 1000 g/ha: 0%
[2]
  pest or weed control at 1000 g/ha: 30%
[3]
  pest or weed control at 1000 g/ha: 0%
[4]
  pest or weed control at 1000 g/ha: 40%
Setaria faberi (SETFA) [5]
  pest or weed control at 1000 g/ha: 0%
Solanum nigrum (SOLNI) [6]
  pest or weed control at 1000 g/ha: 0%
[7]
  pest or weed control at 1000 g/ha: 10%
[8]
  pest or weed control at 1000 g/ha: 70%
[9]
  pest or weed control at 1000 g/ha: 10%
[10]
  pest or weed control at 1000 g/ha: 80%
Setaria faberi (SETFA) [11]
  pest or weed control at 1000 g/ha: 40%
Solanum nigrum (SOLNI) [12]
  pest or weed control at 1000 g/ha: 80%

## COC(=O)c1nc(C2CC2)nc(N(Cc2ccccc2)CC(O)c2ccccc2)c1Cl (stereo not drawn) [Compound 155-257, 5-Chloro-2-cyclopropyl-4-[N-(2-hydroxy-2-phenylethyl)-N-phenylmethyl-amino]-6-methoxycarbonyl-pyrimidine]
[1]
  pest or weed control at 1000 g/ha: 10%
[2]
  pest or weed control at 1000 g/ha: 30%
[3]
  pest or weed control at 1000 g/ha: 10%
[4]
  pest or weed control at 1000 g/ha: 30%
Setaria faberi (SETFA) [5]
  pest or weed control at 1000 g/ha: 20%
Solanum nigrum (SOLNI) [6]
  pest or weed control at 1000 g/ha: 10%
[7]
  pest or weed control at 1000 g/ha: 20%
[8]
  pest or weed control at 1000 g/ha: 90%
[9]
  pest or weed control at 1000 g/ha: 0%
[10]
  pest or weed control at 1000 g/ha: 50%
Setaria faberi (SETFA) [11]
  pest or weed control at 1000 g/ha: 50%
Solanum nigrum (SOLNI) [12]
  pest or weed control at 1000 g/ha: 80%

## COC(=O)c1nc(C2CC2)nc(N(CCO)Cc2cccnc2)c1Cl [Compound 157-156, 5-Chloro-2-cyclopropyl-4-(N-2-hydroxyethyl-N-pyrid-3-ylmethyl--amino)-6-methoxy-carbonylpyrimidine]
[1]
  pest or weed control at 1000 g/ha: 0%
[2]
  pest or weed control at 1000 g/ha: 40%
[3]
  pest or weed control at 1000 g/ha: 0%
[4]
  pest or weed control at 1000 g/ha: 40%
Setaria faberi (SETFA) [5]
  pest or weed control at 1000 g/ha: 0%
Solanum nigrum (SOLNI) [6]
  pest or weed control at 1000 g/ha: 20%
[7]
  pest or weed control at 1000 g/ha: 0%
[8]
  pest or weed control at 1000 g/ha: 40%
[9]
  pest or weed control at 1000 g/ha: 0%
[10]
  pest or weed control at 1000 g/ha: 40%
Setaria faberi (SETFA) [11]
  pest or weed control at 1000 g/ha: 0%
Solanum nigrum (SOLNI) [12]
  pest or weed control at 1000 g/ha: 40%
